Activity calls are given as the source filed them. The rule behind the calls is not given here.

The assay concerns host cell cytotoxicity, % cell control, 2% serum. Briefly: host cell cytotoxicity in HIV-1 fusion assay, dose response, cytotoxicity control for HIV-1 antiviral lead project, fusion assay cells, 2% serum, TC50 (AID 504394).
Take `CCOC(=O)C1=C(C)N=c2sc(=Cc3ccc(OCC(=O)O)cc3)c(=O)n2C1c1ccc(OC)cc1OC` (configuration not stated): the TC50 was > 100 µM (inactive).

For the molecule `O=C(O)c1ccc(C[n+]2c(-c3ccccc3)csc2Nc2ccccc2)cc1`, the TC50 is > 100 µM (inactive).

Take `O=C(O)c1ccc(C[n+]2c(-c3ccc([N+](=O)[O-])cc3)csc2Nc2ccccc2)cc1`: the TC50 was > 100 µM (inactive).

`CCOC(=O)C1=C(C)N=c2sc(=Cc3ccc(OCC(=O)O)cc3)c(=O)n2C1c1ccccc1` (configuration not stated): the TC50 is > 100 µM (inactive).

Consider `O=C(O)CCC(C(=O)O)N1C(=O)/C(=C\c2ccco2)SC1=S` (configuration not stated), for which the TC50 was > 100 µM (inactive).

As for `CCOC(=O)C1=C(C)N=c2sc(=Cc3ccc(OCC(=O)O)cc3)c(=O)n2C1c1cc(OC)c(OC)c(OC)c1` (configuration not stated), the TC50 was > 100 µM (inactive).

On to `CS(=O)(=O)C1=NSC2=NC(=O)/C(=C\c3cccn3-c3cccc(F)c3)C(=N)N21`, for which the TC50 is > 100 µM (inactive).

In the case of `Cc1ccc(-c2ccc(/C=C3\SC(=S)N(CCCC(=O)O)C3=O)o2)cc1`, the TC50 was > 100 µM (inactive).

Consider `Cc1c2c(=O)n(-c3nc4ccccc4s3)nc-2cc(O)n1CCC(C)C`, for which the TC50 was 68.5 µM.

For `Nc1sc2ccccc2[n+]1Cc1ccc(C(=O)O)cc1`, the TC50 is > 100 µM (inactive).

Take `COc1ccc(Cn2c(O)cc3nn(-c4nc5ccccc5s4)c(=O)c-3c2C)cc1`: the TC50 was 61.8 µM.

With `O=C(O)c1ccc([C@@H]2Nc3ccc(S(=O)(=O)Nc4cccc5ccccc45)cc3[C@@H]3C=CC[C@@H]32)cc1`, the TC50 was > 100 µM (inactive).

In the case of `Cc1c2c(=O)n(-c3nc4ccccc4s3)nc-2cc(O)n1Cc1cccnc1`, the TC50 was > 100 µM (inactive).

In the case of `O=C(O)CCCN1C(=O)/C(=C\c2ccc(-c3cccc(Cl)c3)o2)SC1=S`, the TC50 is > 100 µM (inactive).

Regarding `O=C(O)CCCN1C(=O)/C(=C/c2ccc(-c3ccc(Cl)c(Cl)c3)o2)SC1=S`, the TC50 was 12.4 µM.

Consider `CS(=O)(=O)C1=NSC2=NC(=O)/C(=C\c3cccn3-c3cccc(C(F)(F)F)c3)C(=N)N21`, for which the TC50 was > 100 µM (inactive).

Regarding `CCOC(=O)C1=C(C)N=c2sc(=Cc3ccc(OCC(=O)O)cc3)c(=O)n2C1c1ccc(F)cc1` (configuration not stated), the TC50 was > 100 µM (inactive).

As for `Cc1c2c(=O)n(-c3nc4ccccc4s3)nc-2cc(O)n1CCc1cccs1`, the TC50 is > 100 µM (inactive).

`Cc1c2c(=O)n(-c3nc4ccccc4s3)nc-2cc(O)n1CCc1ccc(O)cc1`: the TC50 was 30 µM.

For the molecule `Cc1c2c(=O)n(-c3nc4ccccc4s3)nc-2cc(O)n1Cc1ccccc1Cl`, the TC50 was 38.1 µM.

Regarding `Cc1c2c(=O)n(-c3nc4ccccc4s3)nc-2cc(O)n1C1CC1`, the TC50 was 83.9 µM.

For the molecule `COc1cccc(-n2cccc2/C=C2/C(=N)N3C(=NC2=O)SN=C3S(C)(=O)=O)c1`, the TC50 was > 100 µM (inactive).

As for `O=C(O)CCCN1C(=O)/C(=C\c2ccc(-c3ccc(F)cc3)o2)SC1=S`, the TC50 is 38.1 µM.

In the case of `CS(=O)(=O)C1=NSC2=NC(=O)/C(=C\c3cccn3-c3ccc(Br)cc3)C(=N)N21`, the TC50 was 46.2 µM.

In the case of `CCOc1ccc(-n2cccc2/C=C2/C(=N)N3C(=NC2=O)SN=C3S(C)(=O)=O)cc1`, the TC50 is 84.7 µM.

In the case of `Cc1c2c(=O)n(-c3nc4ccccc4s3)nc-2cc(O)n1Cc1ccc(F)cc1`, the TC50 is 59.9 µM.

Consider `O=C(O)CCCN1C(=O)/C(=C/c2ccc(-c3cccc(C(F)(F)F)c3)o2)SC1=S`, for which the TC50 is > 100 µM (inactive).

For `Cc1c2c(=O)n(-c3nc4ccccc4s3)nc-2cc(O)n1Cc1ccncc1`, the TC50 is > 100 µM (inactive).

With `COc1cccc(C2C(C(=O)Nc3ccccc3)=C(C)N=c3sc(=Cc4ccc(OCC(=O)O)cc4)c(=O)n32)c1` (configuration not stated), the TC50 is > 100 µM (inactive).

Turning to `CCOC(=O)C1=C(C)N=c2sc(=Cc3ccc(OCC(=O)O)cc3)c(=O)n2C1c1ccccc1OC` (configuration not stated), the TC50 was > 100 µM (inactive).

Turning to `Cc1ccc(-n2cccc2/C=C2/C(=N)N3C(=NC2=O)SN=C3S(C)(=O)=O)cc1`, the TC50 is 66.5 µM.

Take `CC1=C(C(=O)OC(C)C)C(c2ccc(Cl)cc2)n2c(s/c(=C\c3ccc(OCC(=O)O)cc3)c2=O)=N1` (configuration not stated): the TC50 was > 100 µM (inactive).

Regarding `CCOC(=O)C1=C(C)N=c2s/c(=C\c3ccc(OCC(=O)O)cc3)c(=O)n2C1c1ccc(OC)c(OCC)c1` (configuration not stated), the TC50 is 78.4 µM.

With `CCOC(=O)C1=C(c2ccccc2)N=c2s/c(=C\c3ccc(OCC(=O)O)cc3)c(=O)n2C1c1cccc(OC)c1` (configuration not stated), the TC50 is 80.4 µM.

Turning to `CS(=O)(=O)C1=NSC2=NC(=O)/C(=C\c3cccn3-c3ccc(F)cc3)C(=N)N21`, the TC50 is > 100 µM (inactive).

In the case of `COc1ccc(-c2ccc(/C=C3\SC(=S)N(CCCC(=O)O)C3=O)o2)cc1`, the TC50 was 68.3 µM.

As for `COc1ccc(CCn2c(O)cc3nn(-c4nc5ccccc5s4)c(=O)c-3c2C)cc1`, the TC50 was 63.2 µM.

The values are drawn from PubChem BioAssay AID504394 (Southern Research Specialized Biocontainment Screening …, 2011).
